Data set [1] has as its target HR1–HR2 interaction (MBP-HR1 / ALP-HR2) of SARS-CoV-2 (Severe acute respiratory syndrome coronavirus 2, UniProt P0DTC2). The data set is described as follows: SPICA: inhibition of the HR1–HR2 interaction. The settings on record: for inhibition of the HR1–HR2 interaction of SARS-CoV-2 (in words): negative controls; for IC50: pIC50 ± SD, 20 nM MBP-HR1 coated, 5 nM ALP-HR2, MES pH 6.4, OD630, SD. The class given is binding.

A further data set relates to VeroE6/TMPRSS2 cells. The data set is described as follows: Cytotoxicity, MTT assay. Format: cell-based, African green monkey. Particulars: mock cell viability, 3 days.

For `CCC(CC)COC(=O)[C@H](C)N[P@](=O)(OC[C@H]1O[C@@](C#N)(c2ccc3c(N)ncnn23)[C@H](O)[C@@H]1O)Oc1ccccc1` [remdesivir], the “inhibition of the HR1–HR2 interaction of SARS-CoV-2 (in words)” value in data set [1] was “no inhibitory effect”. Also, the “pCC50 ± SD” value in the data set on VeroE6/TMPRSS2 cells was 4.2 ± 0.1.

As for `Cc1nnnn1N=Cc1ccc(O)c(C(c2ccc(O)cc2)c2cc(C=Nn3nnnc3C)ccc2O)c1` (centres unmarked) [VP-14637], in data set [1], the “inhibition of the HR1–HR2 interaction of SARS-CoV-2 (in words)” value is on record as “failed to block the HR1–HR2 interaction” and the IC50 (commonly the concentration needed to halve the response being measured) was 25.1 µM.

`CC[C@H](C)[C@H](NC(=O)[C@H](C)NC(=O)[C@H](CCC(=O)O)NC(=O)[C@H](CCC(=O)O)NC(=O)[C@H](CC(C)C)NC(=O)[C@H](CCCCN)NC(=O)[C@H](CCCCN)NC(=O)[C@H](CCSC)NC(=O)[C@H](CCC(=O)O)NC(=O)[C@H](Cc1ccc(O)cc1)NC(=O)[C@H](CCC(=O)O)NC(=O)[C@H](CC(C)C)NC(=O)[C@H](CC(=O)O)NC(=O)[C@H](CC(C)C)NC(=O)[C@H](Cc1ccccc1)NC(=O)[C@@H](NC(=O)[C@@H](NC(=O)[C@H](CC(N)=O)NC(=O)[C@@H](NC(=O)[C@H](CCC(N)=O)NC(=O)[C@H](CC(=O)O)NC(=O)[C@H](CC(C)C)NC(=O)[C@@H](N)CO)[C@@H](C)CC)C(C)C)[C@@H](C)O)C(=O)N[C@@H](CCCCN)C(=O)N[C@@H](CCCCN)C(=O)N[C@@H](CC(C)C)C(=O)N[C@@H](CCC(=O)O)C(=O)N[C@@H](CCC(=O)O)C(=O)N[C@@H](CO)C(=O)N[C@@H](Cc1ccc(O)cc1)C(=O)N[C@H](C(=O)N[C@@H](CC(=O)O)C(=O)N[C@@H](CC(C)C)C(=O)N[C@@H](CCCCN)C(=O)N[C@@H](CCC(=O)O)C(=O)N[C@@H](CC(C)C)C(=O)O)[C@@H](C)CC` [EK1] showed an IC50 in data set [1] of 0.001 µM.

The values above are taken from publication PMC10849125 (RSC Chemical Biology, 2023).
